Test results taken from patent US3991200A, “Substituted nitroimidazolyl thiadiazoles and oxadiazoles as antibacterial agents and growth promoting compounds” (American Cyanamid Company, priority 1973, dated 1976).
“And” between values parts separate entries of the source, which are not always exact repeats. Identical values can stand only once.

How the values were obtained:
Escherichia coli = experiment: controlling colibacillosis in chicks infected with Escherichia coli, single oral dose; type: in vivo, Escherichia coli (in sex-linked pullet chicks); settings: 12 days after treatment
Experimental: Three groups of 10 five-day old sex-linked pullet chicks are infected parenterally, in the left thoracic air sac, with 0.2 ml. of a 10^-^1 dilution of a Trypticase Soy Broth culture of Escherichia coli, the causative agent of colibacillosis in poultry. The compounds to be tested are administered by gavage as a single oral dose in an aqueous solution or suspension, and the chicks are permitted to feed ad libitum the feed composition prepared in Example 44. Twelve days after treatment, the test is terminated and the number of survivors in each group recorded.
Four groups of 40, five-day old sex-linked pullet chicks are infected in the same manner as herein set forth with Escherichia coli. […] Twelve days after treatment, the test is terminated and the number of survivors in each group recorded.

Salmonella gallinarum = experiment: controlling fowl typhoid in chicks, medicated feed; type: in vivo, Salmonella gallinarum (in sex-linked pullet chicks); settings: 10 days
Experimental: Groups of five one-day old sex-linked pullet checks are infected orally by gavage with 0.5 ml. of a 10^-^2 dilution of a five-hour Trypticase Soy Broth culture of Salmonella gallinarum, the causative agent of fowl typhoid. Each chick receives approximately 6 × 10^5 viable cells. Medication is administered continuously in the feed, beginning 3 hours before infection and continuing for 10 days, at which time the test is terminated and the number of survivors in each group recorded. Each test utilizes two control groups of chicks, the first group comprising 20 chicks which are infected and untreated, and the second group comprising 10 chicks which are uninfected and untreated. The results of the tests are set forth in the following Table III (in some instances, the results from two or more tests are combined): […]

Pasteurella multocida [1] = experiment: controlling a Pasteurella multocida infection in mice; type: in vivo, Pasteurella multocida (in Swiss Webster female mice); settings: 336 h, 2 mg./mouse by gavage, two weeks post-infection, read-out: Survivors/Total (converted)
Experimental: Swiss Webster, female mice weighing 22±2 g. were infected by intrapeutoneal injection of 0.5 ml. of a 5 hour Trypticase Soy Broth culture containing 10^7 cfu. of P. multocida. Each mouse was given by gavage at the time of infection 2 mg. of the test drug suspended in 0.2% agar.

Pasteurella multocida [2] = experiment: as above; type: in vivo, Pasteurella multocida (in Swiss Webster female mice); settings: 336 h, two weeks post-infection, read-out: Survivors/Total (converted); for responders at 0.5 mg: 0.5 mg./mouse by gavage; for responders at 1 mg: 1 mg./mouse by gavage; for responders at 0.25 mg: 0.25 mg./mouse by gavage
[3] = enhancing the growth rate and improving feed efficiency, chicks; type: in vivo
Source text: Day-old chicks are divided into groups of ten birds each, five males and five females. These groups are then weighted, placed in pens and given free access to water and feed. […] All feed is weighed such that an accurate determination as to the amount of gain per unit of feed can be ascertained. […]

[4] = 0.025% in feed, 10 chicks tested
[5] = 0.006% in feed, 5 chicks tested
[6] = 10 ppm in diet, 10 birds, 19 days, listed as 1-[5-(1-Methyl-5-nitro-2-imidazolyl)-1,3,4-thiadiazol-2-yl]-4-(2-thiazolyl)piper
[7] = 10 ppm in diet, 10 birds, listed as 1-[5-(1-Methyl-5-nitro-2-imidazolyl)-1,3,4-thiadiazol-2-yl]-4-(2-thiazolyl)piper
[8] = 0.025% in feed, 5 chicks tested
[9] = 0.006% in feed, 10 chicks tested
[10] = 10 ppm in diet, 10 birds, 19 days
[11] = 100 PPM in diet, average of two groups
[12] = 100 PPM in diet, groups of 10 and 9 birds, listed as 2-(2-amino-5-thiadiazolyl)-1-(2-hydroxyethyl)5-nitroimidazole

## Cn1c([N+](=O)[O-])cnc1-c1nnc(N2CCNCC2)s1 [2-[2-(1-Piperazinyl)-5-thiadiazolyl]-1-methyl-5-nitroimidazole]
Escherichia coli; 40 mg/kg single oral dose, 20 chicks tested
  Survivors: 6
Escherichia coli; 160 mg/kg single oral dose, 20 chicks tested
  Survivors: 18
Salmonella gallinarum; [4]
  Survivors: 1
Salmonella gallinarum; 0.1% in feed, 10 chicks tested
  Survivors: 8
Pasteurella multocida [1]
  responders at 2 mg: 10%

## CC(=O)Nc1nnc(-c2ncc([N+](=O)[O-])n2C)o1 [2-(2-Acetamido-5-oxadiazolyl)-1-methyl-5-nitroimidazole]
Salmonella gallinarum; [4]
  Survivors: 8
Salmonella gallinarum; 0.1% in feed, 10 chicks tested
  Survivors: 10

## CCNc1nnc(-c2ncc([N+](=O)[O-])n2C)s1 [2-(2-Ethylamino-5-thiadiazolyl)-1-methyl-5-nitroimidazole]
Salmonella gallinarum; [5]
  Survivors: 3
Salmonella gallinarum; [4]
  Survivors: 3
Salmonella gallinarum; 0.1% in feed, 10 chicks tested
  Survivors: 10
Pasteurella multocida [1]
  responders at 2 mg: 100%

## CN1CCN(c2nnc(-c3ncc([N+](=O)[O-])n3C)s2)CC1 [2-[2-(4-Methyl-1-piperazinyl)-5-thiadiazolyl)-1-methyl-5-nitroimidazole]
Salmonella gallinarum; 0.1% in feed, 10 chicks tested
  Survivors: 4

## CN(CCO)c1nnc(-c2ncc([N+](=O)[O-])n2C)s1 [2-{2-N-(2-Hydroxyethyl)methylamino]-5-thiadiazolyl}-1-methyl-5-nitroimidazolo]
Salmonella gallinarum; 0.1% in feed, 10 chicks tested
  Survivors: 8
Pasteurella multocida [1]
  responders at 2 mg: 100%
Pasteurella multocida [2]
  responders at 0.5 mg: 10%
  responders at 1 mg: 30%

## CCCCCCNc1nnc(-c2ncc([N+](=O)[O-])n2C)s1 [2-(2-n-Hexylamino-5-thiadiazolyl)-1-methyl-5-nitroimidazole]
Salmonella gallinarum; 0.1% in feed, 10 chicks tested
  Survivors: 6
Pasteurella multocida [2]
  responders at 0.25 mg: 20%
  responders at 0.5 mg: 80%
  responders at 1 mg: 90%

## Nc1nnc(-c2ncc([N+](=O)[O-])n2CCO)o1 [2-(2-Amino-5-oxadiazolyl)-1-(2-hydroxyethyl)-5-nitroimidazole]
Pasteurella multocida [1]
  responders at 2 mg: 100%
Pasteurella multocida [2]
  responders at 0.5 mg: 90%

## Cn1c([N+](=O)[O-])cnc1-c1nnc(N2CCN(c3nccs3)CC2)s1 [2-{2-[4-(2-Thiazolyl)-1-piperazinyl]-5-thiadiazolyl]-1-methyl-5-nitroimidazole]
Pasteurella multocida [1]
  responders at 2 mg: 20%
[3]; [6]
  % Increase Over Controls, F/G: 4.1% and 2.0%
  % Increase Over Controls, Gain: 5.0% and 9.0%
  lb.feed/lb. gain: 1.47 lb.feed/lb. gain and 1.50 lb.feed/lb. gain
[3]; [7]
  Gain 19 Days: 315.5 Grams and 303.2 Grams
  Weight at 19 days: 337.8 Grams and 346.9 Grams

## Nc1nnc(-c2ncc([N+](=O)[O-])n2Cc2ccccc2)s1 [2-(2-Amino-5-thiadiazolyl)-1-benzyl-5-nitroimidazole]
Salmonella gallinarum; [4]
  Survivors: 4
Salmonella gallinarum; 0.1% in feed, 10 chicks tested
  Survivors: 10
Pasteurella multocida [1]
  responders at 2 mg: 0%

## Cn1c([N+](=O)[O-])cnc1-c1nnc(N2CCN(CCO)CC2)s1 [2-[4-(2-Hydroxyethyl)-1-piperazinyl-5-thiadiazolyl]-1-methyl-5-nitroimidazole]
Salmonella gallinarum; [4]
  Survivors: 3
Salmonella gallinarum; 0.1% in feed, 10 chicks tested
  Survivors: 7
Pasteurella multocida [1]
  responders at 2 mg: 100%

## Cn1c([N+](=O)[O-])cnc1-c1nnc(NC2CCCCC2)s1 [2-(2-Cyclohexylamino-5-thiadiazolyl)-1-5-nitroimidazole]
Salmonella gallinarum; 0.1% in feed, 10 chicks tested
  Survivors: 8

## Cn1c([N+](=O)[O-])cnc1-c1nnc(NC(=O)CN2CCOCC2)s1 [2-(2-Morpholinoacetamido-5-thiadiazolyl)-1-methyl-5-nitroimidazole]
Salmonella gallinarum; [8]
  Survivors: 1
Salmonella gallinarum; 0.1% in feed, 10 chicks tested
  Survivors: 10
Pasteurella multocida [1]
  responders at 2 mg: 20%

## Nc1nnc(-c2ncc([N+](=O)[O-])n2Cc2ccccc2)o1 [2-(2-Amino-5-oxadiazolyl)-1-benzyl-5-nitroimidazole]
Salmonella gallinarum; [9]
  Survivors: 1
Salmonella gallinarum; [4]
  Survivors: 1
Salmonella gallinarum; 0.1% in feed, 10 chicks tested
  Survivors: 9

## CN(C)c1nnc(-c2ncc([N+](=O)[O-])n2CCO)o1 [2-(2-dimethylamino-5-oxadiazolyl)-1-(2-hydroxyethyl)-5-nitroimidazole]
Salmonella gallinarum; [4]
  Survivors: 2
Salmonella gallinarum; 0.1% in feed, 10 chicks tested
  Survivors: 5

## CNc1nnc(-c2ncc([N+](=O)[O-])n2C)o1 [2-(2-Methylamino-5-oxadiazolyl)-1-methyl-5-nitroimidazole]
Salmonella gallinarum; [9]
  Survivors: 8
Salmonella gallinarum; [4]
  Survivors: 10
Salmonella gallinarum; 0.1% in feed, 5 chicks tested
  Survivors: 5

## CN(C)CCCC1CCN(c2nnc(-c3ncc([N+](=O)[O-])n3C)s2)CC1 [2-{2-[4-(3-Dimethylaminopropyl)-1-piperidino]-5-thiadiazolyl}-1-methyl-5-nitroimidazole]
Pasteurella multocida [1]
  responders at 2 mg: 100%
Pasteurella multocida [2]
  responders at 0.5 mg: 90%

## Cn1c([N+](=O)[O-])cnc1-c1nnc(NC(=O)C(Cl)Cl)s1 [2-(2-Dichloroacetamido-5-thiadiazolyl)-1-methyl-5-nitroimidazole]
Salmonella gallinarum; 0.025% in feed, 15 chicks tested
  Survivors: 3
Salmonella gallinarum; 0.1% in feed, 10 chicks tested
  Survivors: 7

## Cn1c([N+](=O)[O-])cnc1-c1nnc(N2CCCCC2)s1 [2-(2-Piperidino-5-thiadiazolyl)-1-methyl-5-nitroimidazole]
Salmonella gallinarum; 0.1% in feed, 10 chicks tested
  Survivors: 4
[3]; 10 ppm in diet, 10 birds
  Gain 19 Days: 292.7 Grams
  Weight at 19 days: 334.7 Grams
[3]; [10]
  % Increase Over Controls, F/G: 2.7%
  % Increase Over Controls, Gain: 1.0%
  lb.feed/lb. gain: 1.48 lb.feed/lb. gain
Pasteurella multocida [2]
  responders at 0.25 mg: 50%
  responders at 0.5 mg: 40%
  responders at 1 mg: 90%

## CC(=O)Nc1nnc(-c2ncc([N+](=O)[O-])n2C)s1 [2-(2-Acetamido-5-thiadiazolyl)-1-methyl-5-nitro-imidazole]
Escherichia coli; 10 mg/kg single oral dose, 40 chicks tested
  Survivors: 29
Escherichia coli; 20 mg/kg single oral dose, 40 chicks tested
  Survivors: 35
Escherichia coli; 40 mg/kg single oral dose, 40 chicks tested
  Survivors: 39
Salmonella gallinarum; [5]
  Survivors: 3
Salmonella gallinarum; [8]
  Survivors: 4
Salmonella gallinarum; 0.1% in feed, 5 chicks tested
  Survivors: 5

## Cn1c([N+](=O)[O-])cnc1-c1nnc(NCO)s1 [2-(2-Hydroxymethylamino-5-thiadiazolyl)-1-methyl-5-nitroimidazole]
Salmonella gallinarum; [9]
  Survivors: 2
Salmonella gallinarum; [4]
  Survivors: 2
Salmonella gallinarum; 0.1% in feed, 10 chicks tested
  Survivors: 10
Pasteurella multocida [1]
  responders at 2 mg: 100%

## CC(=O)Nc1nnc(-c2ncc([N+](=O)[O-])n2CCO)s1 [N-{5-[1-(2-Hydroxyethyl)-5-nitro-2-imidazolyl]-1,3,4-thiadiazol-2-yl-acetamide]
[3]; 10 ppm in diet, 10 birds
  Gain 19 Days: 305.5 Grams
  Weight at 19 days: 345.9 Grams
[3]; [10]
  % Increase Over Controls, F/G: 0.6%
  % Increase Over Controls, Gain: 0.7%
  lb.feed/lb. gain: 1.57 lb.feed/lb. gain

## CNc1nnc(-c2ncc([N+](=O)[O-])n2CCO)o1 [2-(2-methylamino-5-oxadiazolyl)-1-(2-hydroxyethyl)-5-nitroimidazole]
Salmonella gallinarum; 0.1% in feed, 10 chicks tested
  Survivors: 6

## CCCn1c([N+](=O)[O-])cnc1-c1nnc(N)s1 [2-(2-amino-5-thiadiazolyl)-1-propyl-5-nitroimidazolo]
Salmonella gallinarum; 0.1% in feed, 10 chicks tested
  Survivors: 6

## Cn1c([N+](=O)[O-])cnc1-c1nnc(NC(C)(C)C)s1 [2-(2-t-Butylamino-5-thiadiazolyl)-1-methyl-5-nitroimidazole]
Salmonella gallinarum; 0.1% in feed, 10 chicks tested
  Survivors: 6

## Nc1nnc(-c2ncc([N+](=O)[O-])n2CCO)s1 [2-(2-Amino-5-thiodiazolyl)-1-(2-hydroxyethyl)-5-nitroimidazole]
Salmonella gallinarum; [4]
  Survivors: 8
Salmonella gallinarum; 0.1% in feed, 10 chicks tested
  Survivors: 10
[3]; 100 PPM in diet, 19 days
  % inc. over Controls, F/G: 6.5%
  % inc. over Controls, Gain: 7.6%
[3]; [11]
  Average Gain 19 Days: 297 Grams
  Average Wt. at 19 days: 340 Grams
[3]; 100 PPM in diet, average of two groups, 19 days
  Average lb. feed/lb. gain: 1.525 lb. feed/lb. gain
[3]; 100 PPM in diet, groups of 10 and 9 birds, 19 days, listed as 2-(2-amino-5-thiadiazolyl)-1-(2-hydroxyethyl)5-nitroimidazole
  lb.feed/lb. gain: 1.53 lb. feed/lb. gain and 1.52 lb. feed/lb. gain
[3]; [12]
  Gain 19 Days: 309 Grams and 285 Grams
  Wt. at 19 days: 352.2 Grams and 327.8 Grams
Pasteurella multocida [2]
  responders at 0.25 mg: 76.7%
  responders at 0.5 mg: 90%
  responders at 1 mg: 100%
